Earlier results, collected in PMC8477420 (ChemMedChem, 2020).

Legend:
OCI-AML-2 cells = conditions: monotherapy
MOLM-13 cells = conditions: monotherapy
OCI-AML-3 cells = conditions: monotherapy

SMILES | inhibition of Bcl-2 (Bcl-2) | viability (OCI-AML-2 cells) [%] | viability (MOLM-13 cells) | viability (OCI-AML-3 cells)
COc1ccc(C2=N[C@@H](c3ccc(Cl)cc3)[C@@H](c3ccc(Cl)cc3)N2C(=O)N2CCNC(=O)C2)c(OC(C)C)c1 [Nutlin-3a] | low micromolar inhibition | – | – | –
COc1ncc(-c2nc3c(n2C(C)C)[C@H](c2ccc(Cl)cc2)N(c2cc(Cl)cn(C)c2=O)C3=O)c(OC)n1 [HDM201] | – | 80 | 80% | no reduction
Cc1c(-c2c(-c3ccc(F)o3)sc3ncnc(O[C@H](Cc4ccccc4OCc4ccnn4CC(F)(F)F)C(=O)O)c23)ccc(OCCN2CCN(C)CC2)c1Cl [Compound S63845] | – | 95 | 60–70% | 60–70%
